Patent publication US8536114B2, “Macrocycles” (Scynexis, Inc., priority 2008, dated 2013)
Numbered stars: 1 amine (or outer) side, 2 acyl side, 3 side chain; on linkers, the order of the positions; unused ones are H or OH. Square brackets hold non-standard residues; d marks the D form. Peptide text beside a SMILES is read from it. ξ: configuration not given here. X1 = CC(=O)OC(C)(C)C[C@@H](C(=O)[*:2])N(C)[*:1]; ξNMeBmt = C/C=C/C[C@@H](C)[C@@H](O)C(NC)C(=O)O; dNMeL = CN[C@H](CC(C)C)C(=O)O; dNMeV = CN[C@@H](C(=O)O)C(C)C; dAbu = CC[C@@H](N)C(=O)O; Sar = CNCC(=O)O

Experiments:
IL-2 = assay: T Cell stimulation (IL-2) in Jurkat cells with anti-CD3 and anti-CD28 co-stimulation; assay type: cell-based; conditions: Homo sapiens, supernatant after 6 hours
Experimental: Compounds of formula (I) were tested for their T Cell stimulation (IL-2) in Jurkat cells with anti-CD3 and anti-CD28 co-stimulation. […] All compounds to be tested were dissolved in dimethyl sulfoxide. Cytotoxicity was evaluated with parallel Alamar Blue plates. Jurkat cells were seeded at 2×10^5 cells per well in 190 μL growth media in a 96-well plate. Cells were cultured in RPMI 1640 medium, 10% fetal bovine serum, and L-Glutamine with incubation at 37° C. with 5% carbon dioxide. After 1 hour of incubation the cells were stimulated with immobilized anti-CD3 (0.4 μg/well), anti-CD28 soluble (2 μg/mL). After 6 hours the sample supernatants were harvested and stored at −80° C. 50 μL samples of supernatant were tested for IL-2 using a Luminex® 1-plex assay.

[1] = tested on: Mitochondria prepared from rat livers; assay: Mitochondrial permeability transition (Ca2+-induced mitochondrial swelling); assay type: biochemical; conditions: rat liver mitochondria, swelling induced by 150 micro molar Ca2+, compounds added 5 minutes before; read-out: MPT EC50 (inhibition of mitochondrial swelling)
Experimental: Mitochondrial permeability transition (MPT) was determined by measuring swelling of the mitochondria induced by Ca^2+. The procedure was adapted from the method described by Blattner et al., 2001, Analytical Biochem., 295: 220. Mitochondria were prepared from rat livers, which had been perfused with phosphate-buffered saline (PBS) to remove blood, using standard methods that utilized gentle homogenization in sucrose based buffer and then differential centrifugation to first remove cellular debris and then to pellet the mitochondria. Swelling was induced by 150 micro molar Ca^2+ (added from a concentrated solution of Calcium chloride) and was monitored by measuring the scattering at 535-540 nm. Representative compounds were added 5 minutes before swelling was induced. EC50 were determined by comparing swelling with and without the compounds of formula (I).

Row | Molecule | EC50 (IL-2) [µM] | EC50 [1] [µM]
1 | C/C=C/C[C@@H](C)[C@@H](O)C1C(=O)N[C@H](CC)C(=O)N(C)CC(=O)N(C)[C@@H](CC(C)(C)OC(C)=O)C(=O)N[C@H](C(C)C)C(=O)N(C)[C@H](CC(C)C)C(=O)N[C@H](C)C(=O)N[C@@H](C)C(=O)N(C)[C@H](CC(C)C)C(=O)N(C)[C@H](CC(C)C)C(=O)N(C)[C@H](C(C)C)C(=O)N1C (some centres unmarked) [Compound E, [4′-acetoxy-N-methylleucine]^4cyclosporine A] (cyclo(A[dNMeL][dNMeL][dNMeV][ξNMeBmt][dAbu][Sar][X1][dV][dNMeL][dA])) | < 0.01 | 
2 | [4′-hydroxy-N-methylleucine]^4cyclosporine A S-benzyl-4′-thiocarbonate [Compound X] |  | > 30
